Literature values, collected in patent publication US5427767A, “Nanocrystalline magnetic iron oxide particles-method for preparation and use in medical diagnostics and therapy” (Institut fur Diagnostikforschung GmbH an der Freien …, priority 1991, dated 1995).

Legend:
[1] = 0.47 T, water, 40° C
[2] = in vivo

Compound	T1 relaxivity [1]	T2 relaxivity [1]	allergic potential [2]
O=C([O-])CN(CCN(CC(=O)[O-])CC(=O)O)CCN(CC(=O)[O-])CC(=O)O.[Gd+3] [Gd-DTPA]	~4 1/mmol .phi.s	~4 1/mmol .phi.s	
dextran			adverse allergic potential
